Patent publication US8648116B2, “Derivatives of N-(arylamino) sulfonamides including polymorphs as inhibitors of MEK as well as compositions, methods of use and methods for preparing the same” (Ardea Biosciences, Inc., priority 2005, dated 2014)
Values joined by “and” are separate entries in the source; they are usually repeats but may differ in a detail not shown here. Equal entries are not always repeated. Where two headings read alike, the source gives them in different places. Marks after values point to notes of the source that are not given here. Values belong to the compound of their own block, whether it stands above or below them.

Assays:
[1] = system: Complete Freund's Adjuvant induced arthritis; assay: Rat adjuvant arthritis inflammation assay; format: in vivo, rats; conditions: 10 mg/kg subcutaneous on days 1 and 4
Description: In the rat adjuvant induced arthritis model, Complete Freund's Adjuvant (CFA) is injected into the right hind paw of rats to induce pathologies similar to rheumatoid arthritis in humans. Compound A was administered orally for 5 consecutive days at 2, 6, and 20 mg/kg. Dexamethasone at 5 m g/kg was also administered orally for 5 days. Enbrel at 10 mg/kg was administered by subcutaneous injection on days 1 and 4. CFA was injected into the right hind paw one hour after the first dose on day 1. […] Polyarthritis was scored as the presence of swelling in front paws, tail, nose or ear.

MDA pERK = MDA pERK ELISA; format: cell-based
[2] = system: COLO 205 human colon carcinoma xenografts; assay: Activity against subcutaneous COLO 205 xenografts (Example 118)
[3] = system: human A375 melanoma xenografts
Colo205 tumor cells = assay: ED50 in Colo205 xenografts (Example 94D); format: in vivo, nu/nu mice; conditions: Paclitaxel 30 mg/kg IV QODx5, Colo205 xenografts
Source text: Male nu/nu mice were implanted with Colo205 tumor cells. After 10 days animals were randomized by tumor size (range 126-256 mm^3) and treated with paclitaxel (IV, QODx5), vehicle or Compound A (PO, QDx14).

[4] = Dynamic vapor sorption/desorption (DVS); format: physicochemical; conditions: Form A; 5% to 95% relative humidity
Description: Moisture sorption/desorption data were collected on a VTI SGA-100 Vapor Sorption Analyzer. Sorption and desorption data were collected over a range of 5% to 95% relative humidity (RH) at 10% RH intervals under a nitrogen purge. Samples were not dried prior to analysis. Equilibrium criteria used for analysis were less than 0.0100% weight change in 5 minutes, with a maximum equilibration time of 3 hours if the weight criterion was not met. Data were not corrected for the initial moisture content of the samples. Sodium chloride and polyvinypyrrolidine were used as calibration standards.

A375 cells = assay: Evaluation of cell cycle arrest (propidium iodide, flow cytometry); format: cell-based, human; conditions: 24 hr
Description: A375 cells were plated in 96-well microplates at 10,000 cells/200 μl/well. […] After another 24 hr, cells were trypsinized, fixed in 200 μl Prefer (Anatech, Battle Creek, Mich.), and stored at 4° C. overnight. Cells were then rinsed in PBS, permeabilized and stained in 0.1% Triton X-100, 200 μg/ml DNase-free RNase, and […] propidium iodide (Molecular Probes, Sunnyvale, Calif.), and analyzed on the Guava PCA-96 (Guava Technologies, Foster City, Calif.). Data were analyzed using ModFit LT (version 3.0, Verity, Topsham, Me.).

[5] = system: orthotopic HT-29 human colorectal adenocarcinoma; assay: Growth response of orthotopic HT-29 colon tumors in nude mice; format: in vivo, BALB/c nu/nu mice
Description: (§1) Female BALB/c nu/nu mice (University of Adelaide, Waite Campus, SA, Australia), aged 7-12 weeks, with a body weight range: of 16.58-25.39 g (mean 21.52 g) were used for the study. The mice were divided into 6 Study groups (4 treatment groups and 2 control groups) as follows: • Number of Mice per Group: 10 in Groups 1 to 5 inclusive • 9 in ‘Take-Rate’ Control Group (Group 6)
HT-29 human colorectal adenocarcinoma cells (Passage 4 from working stock VP-Stock 325) were cultured in RPMI1640 cell culture medium, which was supplemented with 10% FBS and penicillin-streptomycin (501 U/mL final concentration). The cells were harvested by trypsinisation, washed twice in HBSS and counted. The cells were then resuspended in HESS and adjusted to a final volume containing 2×10^8 cells/mL. Prior to inoculation, the incision site was liberally swabbed with alcohol and an incision made through the abdominal wall to expose the caecum wall. The needle was introduced through the surface of the caecum wall where 5 μL of cells (1×10^6 cells) were discharged.
A stock solution was prepared weekly and stored at 4° C. Dosing solutions were prepared on each day of administration.
Caecum and tumor wet weight were measured when each were excised post-mortem on the termination day of the study. At the termination of the study, the caecum was excised from all mice in each study group and weighed with the tumors intact. The tumors were then excised from the caecum and weighed.
A two-sample t-test was used to determine the significance in body weight change within a treatment group between Day 0 and the termination day of the study. […] In these groups, a two-sample t-test was used to determine the significance in body weight change within a treatment group between Day 0 and the final treatment day of the study, and between the last treatment day and the termination day of the study.
(§2) A One-Way Analysis of Variance (ANOVA) (All Pairwise Multiple Comparison Procedure and Multiple Comparison versus Control Group) was performed on the caecum weight and tumor weight data at the end of the study.

[6] = system: orthotopic Hep3B2.1-7 human hepatic carcinoma; assay: Growth response of orthotopic Hep3B tumors in nude mice; format: in vivo, BALB/c nu/nu mice
Description: as §1, with “10-14” for “7-12”, “19.1-29.94” for “16.58-25.39”, “22.95” for “21.52”, “15” for “9”
Hep3B human hepatic carcinoma cells (Passage 2 from working stock VP-Stock 353) were cultured in RPMI1640 cell culture medium, which was supplemented with 10% FBS and penicillin-streptomycin (501 U/mL final concentration). The cells were harvested by trypsinisation, washed twice in HBSS and counted. The cells were then resuspended in HBSS:Matrigel (1:1, v/v) and adjusted to a final volume containing 1×10^8 cells/mL. Prior to inoculation, the incision site was liberally swabbed with alcohol and an incision made through the abdominal wall to expose the liver. The needle was introduced through the surface of the liver where 10 μL of cells (1×10^6 cells) were discharged. The needle was held in this position for approximately 30 seconds to allow the Matrigel® to polymerize in order to avoid leakage of tumor cells into the abdominal cavity.
Treatment commenced 14 days post-inoculation. On Day 7 of the study (21 days post-inoculation), all mice from the ‘Take-Rate’ control group were culled and the livers visually assessed for the presence of tumors.
A stock solution was prepared weekly and stored at 4° C. Dosing solutions were prepared on each day of administration. […] The compound was administered at doses of 2, 10 and 50 mg/kg.
Liver and tumor wet weight were measured when each were excised post-mortem on the termination day of the study. At the termination of the study, livers were excised from all mice in each study group and weighed. The number of visible tumors, if present, was counted. These tumors were removed from the liver and weighed.
as §2, with “liver” for “the caecum”, “study. […] The same statistical analyses were performed on the data for the tumor-bearing mice in the study.” for “study.”

[7] = Group 2, paclitaxel 30 mg/kg iv qod × 14 per the 39th table (qod×5), n=9
[8] = Group 2: Paclitaxel 30 mg/kg iv qod×5
[9] = Group 2: Paclitaxel 30 mg/kg iv qod×5, n=9
[10] = 5FU 75 mg/kg, individual animals, listed as 5FU
[11] = 5FU 75 mg/kg, mice surviving to final day
[12] = 5FU 75 mg/kg i.v. Day 0, 7 and 14, tumor-bearing mice

Compound: enbrel
animals without swelling in the tail (polyarthritis scoring) [1]: 3 of 6
protection from front paw swelling (polyarthritis scoring) [1]: no animals were protected

Compound: CC(=O)O[C@H]1C(=O)[C@@]2(C)[C@H]([C@H](OC(=O)c3ccccc3)[C@]3(O)C[C@H](OC(=O)[C@H](O)[C@@H](NC(=O)c4ccccc4)c4ccccc4)C(C)=C1C3(C)C)[C@]1(OC(C)=O)CO[C@@H]1C[C@@H]2O [paclitaxel, reference compound]
PR responses ([2]; Group 2, 30 mg/kg i.v. qod×5): Five
MTV ([2]; Group 2, 30 mg/kg i.v. qod×5, Day 74): 143 mm^3
% TGD [2, 7]: 46%
MTV (n) Day 74 [2, 7]: 0 (3)
Median TTE [2, 7]: 60.0 days
No of CR [2, 7]: 0
No of NTR (non-treatment-related deaths) [2, 7]: 2
No of PR [2, 7]: 1
No of TFS [2, 7]: 0
No of TR (treatment-related deaths) [2, 7]: 2
SS (statistical significance, logrank vs Group 1) [2, 7]: ns
T − C [2, 7]: 19.0 days
Median TTE ([3]; Group 2, 30 mg/kg iv qod×5): 28.8 days
TGD ([3]; Group 2, 30 mg/kg iv qod×5): 26%
tumor regressions ([3]; Group 2, 30 mg/kg iv qod×5): No tumor regressions
% TGD [3, 8]: 26%
Median TTE [3, 8]: 28.8 days
T − C [3, 8]: 6.0 days
Regressions CR [3, 9]: 0
Regressions PR [3, 9]: 0
Regressions TFS [3, 9]: 0
Day 15 Tumor Volume (Colo205 tumor cells): 113 ± 9.6 mm^3
% TGI (Colo205 tumor cells; Day 15): 104* %

Compound: COc1cc(F)c(F)c(Nc2ccc(I)cc2F)c1NS(=O)(=O)C1(C[C@H](O)CO)CC1 [listing 1 of 2 here]
weight change in DVS [4]: negligible weight change

Compound: CS(=O)(=O)Nc1ccc(-c2ccc(Nc3c(NS(=O)(=O)C4CC4)ccc(F)c3F)c(F)c2)cc1 [Example 0499271]
EC50 (MDA pERK): > 200 nM

Compound: O=S(=O)(Nc1ccc(F)c(F)c1Nc1ccc(I)cc1F)C1CCNCC1 [Example 0561599]
EC50 (MDA pERK): 15 to 100 nM

Compound: COC(=O)c1ccc(S(=O)(=O)Nc2ccc(F)c(F)c2Nc2ccc(I)cc2F)n1C [Example 0561608]
EC50 (MDA pERK): 15 to 100 nM

Compound: Cn1cc(-c2ccc(Nc3c(NS(=O)(=O)C4CC4)ccc(F)c3F)c(F)c2)cn1 [Example 0497620]
EC50 (MDA pERK): > 200 nM

Compound: COc1cc(F)c(F)c(Nc2ccc(I)cc2F)c1NS(=O)(=O)C1(C[C@H](O)CO)CC1 [listing 2 of 2 here]
Phase % G1 (A375 cells; 37 nM): 74.3%
Phase % G2 (A375 cells; 37 nM): 7.0%
Phase % S (A375 cells; 37 nM): 18.7%
Phase % G1 (A375 cells; 111 nM): 84.7%
Phase % G2 (A375 cells; 111 nM): 3.5%
Phase % S (A375 cells; 111 nM): 11.8%

Compound: O=S(=O)(Nc1ccc(F)c(F)c1Nc1ccc(I)cc1F)c1ccc(-c2nsc(Cl)n2)s1 [Example 0530701]
EC50 (MDA pERK): 100 to 200 nM

Compound: O=c1[nH]cc(F)c(=O)[nH]1 [5-Fluorouracil, reference compound]
weight of the caecum and HT-29 tumors ([5]; 75 mg/kg i.v. once per week): no effect
Caecum Weight [5, 10]: 0.355 g and 0.199 g and 0.360 g and 0.284 g and 0.421 g and 0.706 g and 0.415 g and 0.327 g and 0.237 g and 0.377 g
Tumour Weight [5, 10]: 0.245 g and 0.001 g and 0.000 g (3×) and 0.010 g and 0.329 g and 0.130 g and 0.079 g and 0.003 g
Average Caecum Weight [5, 11]: 0.391 g
Average Tumour Weight [5, 11]: 0.069 g
No. of Mice with Tumors (out of 10) ([6]; 5FU 75 mg/kg i.v. Day 0, 7 and 14): 4
Average Liver Weight [6, 12]: 1.217 g
Average Tumor Weight [6, 12]: 0.143 g
average weight of the tumors vs Vehicle Control ([6]; tumor-bearing mice, 75 mg/kg i.v. once per week): significantly different
average weight of the liver vs Vehicle Control ([6]; tumor-bearing mice, 75 mg/kg i.v. once per week, p<0.05): significantly different

Compound: CCN(C)CCS(=O)(=O)Nc1ccc(F)c(F)c1Nc1ccc(I)cc1F [Example 0621029]
EC50 (MDA pERK): 100 to 200 nM

Compound: Cn1cc(S(=O)(=O)Nc2ccc(F)c(F)c2Nc2ccc(I)cc2F)c(C(F)(F)F)n1 [Example 0621026]
EC50 (MDA pERK): 100 to 200 nM

Continued, values first:

EC50 (MDA pERK): > 200 nM
Compound: COC(=O)c1sccc1S(=O)(=O)Nc1ccc(F)c(F)c1Nc1ccc(I)cc1F [Example 0620926]

EC50 (MDA pERK): > 200 nM
Compound: O=S(=O)(Nc1ccc(F)c(F)c1Nc1ccc(-c2ccccc2)cc1F)C1CC1 [Example 0497692]

EC50 (MDA pERK): > 200 nM
Compound: CC(=O)c1cccc(-c2ccc(Nc3c(NS(=O)(=O)C4CC4)ccc(F)c3F)c(F)c2)c1 [Example 0499266]

EC50 (MDA pERK): 15 to 100 nM
Compound: CNCCS(=O)(=O)Nc1ccc(F)c(F)c1Nc1ccc(I)cc1F [Example 0621002]

EC50 (MDA pERK): > 200 nM
Compound: O=S(=O)(Nc1ccc(F)c(F)c1Nc1ccc(-c2cn[nH]c2)cc1F)C1CC1 [Example 0497618]

EC50 (MDA pERK): 15 to 100 nM
Compound: CN(C)CCNCCS(=O)(=O)Nc1ccc(F)c(F)c1Nc1ccc(I)cc1F [Example 0621016]

EC50 (MDA pERK): > 200 nM
Compound: O=S(=O)(Nc1ccc(F)c(F)c1Nc1ccc(-c2cccnc2)cc1F)C1CC1 [Example 0497689]

EC50 (MDA pERK): > 200 nM
Compound: O=S(=O)(Nc1ccc(F)c(F)c1Nc1ccc(-c2ccncc2)cc1F)C1CC1 [Example 0497688]

EC50 (MDA pERK): 15 to 100 nM
Compound: O=S(=O)(Nc1ccc(F)c(F)c1Nc1ccc(I)cc1F)c1ccsc1 [Example 0620927]

EC50 (MDA pERK): 100 to 200 nM
Compound: O=S(=O)(Nc1ccc(F)c(F)c1Nc1ccc(-c2cc[nH]n2)cc1F)C1CC1 [Example 0497654]
